In PubChem BioAssay AID540271 (Broad Institute, 2011) one finds AC50 data, which are given here for 99 compounds.

Active and inactive are the calls of the source. How the calls were made is not given here.

For this test, the system named is S. cerevisiae expressing PfHSP40, growth rescue, plate reader. As to the kind of experiment: Yeast growth rescue from Plasmodium falciparum HSP40 toxicity, dose response confirmatory, plate reader (AID 540271).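 Further: yeast growth read after three days of incubation at 30 °C.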
For the compound `CC1=CC(=O)C=C(C)C1=NOS(=O)(=O)c1ccccc1`, the AC50 was 4.15 µM.
Consider `COc1ccc(N=N/C(=C\O)C(=O)c2cccs2)cc1`, for which the AC50 was 7.25 µM.
Regarding `CN(C)c1nc(SCc2ccc(Cl)cc2)nc2c1CCCC2`, the AC50 is 5.58 µM.
For `CCCCCCCc1ccc(-c2ccc(O)cc2)nc1`, the half-maximal activity concentration (AC50) was 5.12 µM.
Take `O=C(CSc1nc2ccccc2s1)N/N=C/c1cc([N+](=O)[O-])ccc1O`: the AC50 was 5.52 µM.
For the compound `COc1ccc2oc(=O)c(-c3csc(Nc4cccc(O)c4)n3)cc2c1`, the AC50 is 4.91 µM.
With `CC[C@@H](C(=O)[C@@H](C)[C@@H](O)[C@H](C)[C@@H]1O[C@@H]([C@@H](CC)C(=O)O)CC[C@@H]1C)[C@H]1O[C@]2(C=C[C@@H](O)[C@]3(CC[C@@](C)([C@H]4CC[C@](O)(CC)[C@H](C)O4)O3)O2)[C@H](C)C[C@@H]1C`, the concentration at half-maximal activity (AC50) is 3 µM.
With `COc1cc(OC)c(-c2c3cc(O)c(=O)cc-3oc3cc(O)c(O)cc23)cc1OC`, the AC50 is 1.67 µM.
`Cc1cccc(Oc2nc(-c3ccccn3)nc3ccccc23)c1`: the AC50 was 6.77 µM.
`CNc1ccc2oc(C[C@H]3O[C@@]4(CC[C@H]3C)O[C@H]([C@H](C)C(=O)c3ccc[nH]3)[C@H](C)C[C@H]4C)nc2c1C(=O)O`: the AC50 was 0.662 µM.
On to `COc1ccc2c(c1)OC[C@H]1[C@H]2N2C(=O)c3cc(OC)ccc3NC(=O)[C@@]2(C)[C@H]1c1ccccc1`, for which the AC50 is 4.84 µM.
Turning to `COc1ccc(C2=CC(=O)C[C@H](c3ccc4c(c3)OCO4)C2)cc1`, the AC50 was 6.93 µM.
As for `O=C1c2ccccc2NC(c2ccc(-c3ccc(F)cc3)o2)N1O` (centres undefined), the AC50 is 8.42 µM.
As to `CCCn1nc(C(=O)N2CCN(S(=O)(=O)c3ccc(C)c(C)c3)CC2)c2ccccc2c1=O`, the half-maximal activity concentration (AC50) was 6.13 µM.
For the compound `COc1ccc(-n2nc(C#N)c(Cl)cc2=O)cc1`, the half-maximal activity concentration (AC50) was 7.48 µM.
For the compound `O/N=C(\c1ccc(Cl)cc1Cl)c1ncc(C(F)(F)F)cc1Cl`, the AC50 was 9.27 µM.
For `Cc1c(C(=O)O)cccc1-c1ccc(/C=N/Nc2ccc(Br)cc2)o1`, the AC50 was 6.31 µM.
On to `CC(C)C(=O)NC(c1ccco1)c1ccc2cccnc2c1O` (centres undefined), for which the AC50 is 4.51 µM.
Turning to `O=Cc1cc(N=Nc2ccccc2Cl)ccc1O`, the AC50 was 0.768 µM.
To `CCCOc1ccc2ccccc2c1/C=C1\SC(=O)NC1=O` belongs 5.65 µM; to `O=C(c1ccccc1)N1C(=O)C(c2ccccc2)Oc2ccccc21` (centres undefined), 0.937 µM; to `Cc1ccccc1OCC(O)Cn1c2ccccc2c2ccccc21` (centres undefined), 4.74 µM.
With `CCc1cc(SC#N)cc(C)c1NC(=O)CCl`, the AC50 was 4.4 µM.
`CCC(=O)NC(c1cc(Cl)c2cccnc2c1O)C(C)C` (centres undefined): the AC50 was 5.29 µM.
Turning to `CC1=CC(C)(C)N(S(=O)(=O)c2ccc(C)cc2)c2ccc(C)cc21`, the AC50 is 7.54 µM.
As to `CC1(C(=O)OCC(=O)Nc2ccc3ccccc3c2)CC1(Cl)Cl` (centres undefined), the AC50 is 9.6 µM.
For `Cc1ccc(SCCNC(=S)Nc2ccc(C)c(C)c2)cc1` the value was 6.21 µM; for `Oc1c(I)cc(Cl)c2cccnc12`, 0.629 µM; for `Cc1cc(C)c(C(=O)CC(=O)c2cccnc2)c(C)c1`, 2.06 µM.
As for `CCCCC(=O)NC(c1ccco1)c1cc(Cl)c2cccnc2c1O` (centres undefined), the AC50 is 2 µM.
With `O=C(CSc1ccc(-c2ccccn2)nn1)NCc1ccccc1`, the AC50 is 6.96 µM.
`Cc1ccc(CNC(=O)CSc2ccc(-c3ccccn3)nn2)cc1`: the AC50 was 4.21 µM.
Turning to `COc1ccc(/C=N/Nc2cc(C)nc(-n3nc(C)cc3C)n2)cc1`, the AC50 was 5.99 µM.
Take `CCCn1c2ccccc2c2cc(C(=O)O)ccc21`: the AC50 is 7.09 µM.
Turning to `CC(=O)Nc1ccc2c(c1)Cc1cc(N3C(=O)C=CC3=O)ccc1-2`, the AC50 is 0.526 µM.
For `Cc1cc(C(=O)COC(=O)Cc2n[nH]c(=O)c3ccccc23)c(C)n1-c1cccc(C(F)(F)F)c1`, the AC50 is 6.72 µM.
`CNC1=C(N(C(C)=O)c2ccc(Br)cc2)C(=O)c2ccccc2C1=O`: the AC50 is 6.77 µM.
To `C=C1C(=O)C23CCC4C(C)(C(=O)OC)CCCC4(C)C2CCC1(O)C3` (centres undefined) belongs 11.6 µM.
In the case of `Cc1ccc(-c2cc(-c3ccc(C)cc3)[n+](-c3ccccc3)c(-c3ccc(C)cc3)c2)cc1`, the AC50 was 5.4 µM.
Regarding `Cc1cc(NS(=O)(=O)c2ccc(C3CCCCC3)cc2)no1`, the AC50 is 5.38 µM.
For `CCCCCCCn1c(=O)c(C(=O)OC)c(N)c2ccccc21`, the AC50 is 4.64 µM.
As for `CCC(NC(=S)NCc1ccc(F)cc1)c1ccc(C(C)C)cc1` (centres undefined), the AC50 was 5.15 µM.
For `CCOC(=O)C1=C(Cc2ccc(OC)cc2)C(=O)c2ccccc2C1=O` the value was 5.4 µM; for `Cc1onc(-c2c(Cl)cccc2Cl)c1C(=O)N/N=C(\N)COc1ccc(Cl)cc1`, 3.02 µM.
For `CC(C)(C)c1ccc(C(=O)NC(=S)NNC(=O)c2cccs2)cc1` the value was 1.89 µM; for `COC(OC)c1ccc(C#N)c(SCc2ccccc2)n1`, 7.52 µM; for `O=C1CC(N2CCCCCC2)C(=O)N1c1ccc2c(c1)OCO2` (centres undefined), 4.18 µM.
As to `Cc1cccc(C)c1N1C(=O)C2ON(c3ccccc3)C(c3ccncc3)C2C1=O` (centres undefined), the AC50 was 6.34 µM.
Regarding `CC(=O)Nc1cccc(-c2cc(-c3c(Cl)cccc3Cl)no2)c1`, the half-maximal activity concentration (AC50) is 3.12 µM.
Take `CC12CCC(O)CC1=CCC1C2CCC2(C)C3=NN=CC3CC12` (centres undefined): the AC50 is 11.4 µM.
As to `CC1CC(C)CC(C)C(O)C(C#N)=CC=CCC(C2CCCC2C(=O)O)OC(=O)CC(O)C(C)C1` (centres undefined), the half-maximal activity concentration (AC50) was 5.14 µM.
As for `CC(C)=CCc1c(O)ccc(C(=O)Cc2ccccc2)c1O`, the AC50 is 10.8 µM.
For `Cc1ccc(Cl)cc1NC1=C/C(=N\S(=O)(=O)c2cccs2)c2ccccc2C1=O`, the AC50 was 6.42 µM.
For `O=C(NC(=S)N(CCc1ccccc1)CCc1ccccc1)c1ccco1` the value was 5.34 µM; for `N=c1c2c(-c3ccccc3)c(-c3ccccc3)n(Cc3ccco3)c2ncn1CCCn1ccnc1`, > 12 µM (inactive).
For `Cc1ccc(O)c(-c2cc(-c3ccccc3C)[nH]n2)c1`, the AC50 is 5.42 µM.
Take `FC(F)(F)c1cccc(N2CCc3cn[nH]c32)c1`: the AC50 is 0.446 µM.
For `Cc1nc2ccc(C(C(F)(F)F)(C(F)(F)F)C(F)(F)F)cc2[nH]1`, the AC50 is 3.2 µM.
For `O=C(NC1=CC(=O)c2ccccc2C1=O)c1ccccc1` the value was 7.77 µM; for `COc1cccc(CNC(=O)CSc2ccc(-c3ccccn3)nn2)c1`, 5.07 µM.
`O=c1c(/C=N/O)coc2ccc(Cl)cc12`: the AC50 was > 12 µM (inactive).
For the compound `CC1=C(C)/C(=N\OS(=O)(=O)c2ccc(C)cc2)C=CC1=O`, the AC50 was 5 µM.
For `CCOC(=O)N1CCN(S(=O)(=O)c2ccc(C(=O)NNc3nc4ccc(Cl)cc4s3)cc2)CC1` the value was 5.51 µM; for `CNC(=S)Nc1ccc(C23CC4CC(CC(C4)C2)C3)cc1`, 7.25 µM; for `CCCCNc1c(-c2cccc(-c3ccc(OC)cc3)c2)nc2ccc(C)cn12`, 5.67 µM.
As to `Cc1cc(/C=C2\SC(=S)N(C)C2=O)c(C)n1-c1ccc(O)cc1`, the AC50 was 3.33 µM.
As to `CN(C)c1ccc(C=c2c3ccccc3n3c2cc(-c2ccc(Cl)cc2)[n+]3C)cc1`, the AC50 was 7.4 µM.
In the case of `O=C1N(c2ccc(Cl)cc2)C(c2cccnc2)N2CCCN12` (centres undefined), the AC50 is 6.03 µM.
On to `Cc1cc(F)ccc1S(=O)(=O)N(C(=O)c1ccncc1)c1ccc(OC(=O)c2ccncc2)cc1`, for which the AC50 was 6.3 µM.
Take `O=[N+]([O-])c1ccc(-c2nc(-c3cccs3)c(-c3cccs3)[nH]2)cc1`: the AC50 is 4.2 µM.
Consider `Cc1onc(-c2ccccc2)c1C(=O)NC(=S)NNC(=O)c1ccc(O)cc1O`, for which the AC50 was 4.82 µM.
Take `O=c1c(O)cccc2cc(O)c(O)c(O)c12`: the AC50 is 3.63 µM.
Take `CCOC(=O)c1c(C)oc2c1C(=O)c1ccccc1C2=O`: the AC50 is 6.76 µM.
`CN(c1ccccc1)c1nc(N2CCCC2)nc(-n2ccnc2)n1`: the AC50 is 1.04 µM.
To `CCOC(=O)c1ccc(NC(=O)CC2OCCN(CC)C2=O)cc1` (centres undefined) belongs 4.89 µM.
For `O=Cc1ccc(O)c2ncccc12` the value was 0.366 µM; for `Cc1cccc(C)c1NS(=O)(=O)c1ccc(-c2cnc(C3CC3)o2)cc1`, 6.06 µM; for `CCCSC(=S)c1c(C)[nH]n(-c2ccccc2)c1=O`, 5.46 µM.
As for `Cc1c(C2(O)CCCCC2)[nH]c2ccc(C(F)(F)F)cc12`, the AC50 was 7.22 µM.
For the compound `CCc1ccc(C(C)NC(=S)NC2CCCCC2)cc1` (centres undefined), the AC50 was 7.1 µM.
In the case of `COc1ccc(N(C(=O)c2ccncc2)S(=O)(=O)c2ccc(F)cc2)cc1`, the AC50 was 5.25 µM.
`O=S(=O)(c1ccc(Cl)cc1)N1CCC2(CC1)OCCN2S(=O)(=O)c1cccs1`: the AC50 is 4.77 µM.
On to `CCc1sc(C(=O)Nc2nc(-c3ccccn3)cs2)cc1C`, for which the AC50 is 1.82 µM.
Turning to `CC(C)CN=Cc1c(O)c([N+](=O)[O-])cc2oc3c(c12)CCCC3`, the AC50 was 1.33 µM.
With `Cc1nn2c(-c3ccncc3)nnc2c2ccccc12`, the AC50 is 7.28 µM.
To `CCc1cc(-c2[nH]ncc2-c2ccc([N+](=O)[O-])cc2)c(O)cc1OC` belongs 6.19 µM; to `C=CCN(CC=C)C(=S)NC(=O)c1ccc(C)c(Br)c1`, 6.72 µM.
In the case of `Cc1ccc(NC2(c3nnnn3-c3c(C)cccc3C)CCCCC2)cc1`, the AC50 was 6.94 µM.
In the case of `Cc1csc(NC(=S)Nc2cccc(Cl)c2)n1`, the AC50 is 11.2 µM.
With `N#Cc1c(-c2ccc(Cl)cc2)n(O)c2ccccc12`, the concentration at half-maximal activity (AC50) is 2.67 µM.
As to `Oc1ccc(N=Nc2ccc3c(c2)OCCO3)c2cccnc12`, the AC50 was 1.85 µM.
In the case of `CCCCC(=O)NC(c1ccc(N(C)C)cc1)c1ccc2cccnc2c1O` (centres undefined), the AC50 is 1.65 µM.
As to `CC(C)(C)c1cc(-c2nc(N)nc(N)n2)c(O)c(C(C)(C)C)c1`, the half-maximal activity concentration (AC50) is 4.99 µM.
As to `COc1ccc(OC)c2c1C(=O)C(Cl)=C(Cl)C2=O`, the AC50 was 1.4 µM.
As for `CCOc1cc([N+](=O)[O-])cc(/C=N/NC(=O)c2c(-c3ccccc3)noc2C)c1O`, the AC50 is 4.9 µM.
Turning to `O=C(COc1ccc([N+](=O)[O-])cc1)Nc1nc(-c2ccccn2)cs1`, the AC50 is 5.37 µM.
For `O=C(NCCC1=CCCCC1)c1c(O)nc2sccn2c1=O` the value was 3.82 µM.
On to `CC1=NN(C(N)=S)C(=O)C1N=Nc1cccc(Cl)c1C` (centres undefined), for which the AC50 was 3.3 µM.
Consider `O=S(=O)(CCSc1ccccn1)c1nc2ccccc2s1`, for which the AC50 is 7.49 µM.

What is called AC50 is the midpoint of the concentration-response curve, whichever way the signal moves.
